These results are taken from patent US8633183B2 (priority 2010, dated 2014).

The target in the experiment is PI3Kalpha (Homo sapiens (Human), UniProt P42336). As to conditions: read-out: IC50 PI3K.
Chain of PI3Kalpha (P42336 whole entry, looked up): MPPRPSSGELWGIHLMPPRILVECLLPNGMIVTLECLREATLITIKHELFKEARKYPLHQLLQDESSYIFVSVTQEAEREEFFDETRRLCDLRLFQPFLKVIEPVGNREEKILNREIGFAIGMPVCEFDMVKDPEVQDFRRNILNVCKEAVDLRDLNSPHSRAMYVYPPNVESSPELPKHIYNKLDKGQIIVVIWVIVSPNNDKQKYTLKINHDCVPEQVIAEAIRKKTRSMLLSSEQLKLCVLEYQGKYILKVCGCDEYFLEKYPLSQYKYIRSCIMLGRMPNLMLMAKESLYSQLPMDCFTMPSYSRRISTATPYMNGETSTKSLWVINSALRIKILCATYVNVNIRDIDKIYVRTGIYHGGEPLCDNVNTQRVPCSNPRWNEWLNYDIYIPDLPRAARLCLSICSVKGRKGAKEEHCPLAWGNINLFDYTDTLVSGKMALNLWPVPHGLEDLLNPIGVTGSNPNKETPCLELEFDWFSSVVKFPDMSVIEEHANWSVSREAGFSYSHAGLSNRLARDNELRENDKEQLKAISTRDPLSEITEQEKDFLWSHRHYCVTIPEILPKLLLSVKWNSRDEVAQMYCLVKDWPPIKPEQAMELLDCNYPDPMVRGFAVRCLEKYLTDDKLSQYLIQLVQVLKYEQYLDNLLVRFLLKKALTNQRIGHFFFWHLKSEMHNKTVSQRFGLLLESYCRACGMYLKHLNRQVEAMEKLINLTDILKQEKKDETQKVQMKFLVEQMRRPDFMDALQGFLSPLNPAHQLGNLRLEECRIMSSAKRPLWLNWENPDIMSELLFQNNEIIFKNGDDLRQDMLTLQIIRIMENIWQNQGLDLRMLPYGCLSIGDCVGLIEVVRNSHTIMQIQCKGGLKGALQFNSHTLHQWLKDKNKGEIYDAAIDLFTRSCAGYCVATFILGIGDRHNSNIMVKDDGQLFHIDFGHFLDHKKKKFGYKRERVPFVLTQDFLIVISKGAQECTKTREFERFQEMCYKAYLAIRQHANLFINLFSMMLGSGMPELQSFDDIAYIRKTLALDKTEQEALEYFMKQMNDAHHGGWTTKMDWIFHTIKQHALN
Turning to `CCc1ncnc(-c2ccc(C(=O)N3CCN(Cc4cc(C)no4)CC3)c(Cl)c2)c1C#Cc1ccc(N)nc1` [Example E-312], the IC50 (as a rule, the concentration needed to halve the response being measured) was found to be 110 nM.

For `CCc1ncnc(-c2ccc(C(=O)N3CCN(C(C)COC)CC3)c(Cl)c2)c1C#Cc1ccc(N)nc1` (centres unmarked) [Example E-313], the IC50 was found to be 122 nM.

Turning to `CCc1ncnc(-c2ccc(C(=O)N3CCN(Cc4nc(C)c(C)o4)CC3)c(Cl)c2)c1C#Cc1ccc(N)nc1` [Example E-315], the IC50 came out at 127 nM.

With `CCc1ncnc(-c2ccc(C(=O)N3CCN(C4CCCC4O)CC3)c(Cl)c2)c1C#Cc1ccc(N)nc1` (centres unmarked) [Example E-316], the IC50 came to 57.1 nM.

Turning to `CCc1ncnc(-c2ccc(C(=O)N3CCN(CC(C)O)CC3)c(Cl)c2)c1C#Cc1ccc(N)nc1` (centres unmarked) [Example E-317], the IC50 came out at 92.8 nM.

Regarding `CCc1ncnc(-c2ccc(C(=O)N3CCN(CCOCCO)CC3)c(Cl)c2)c1C#Cc1ccc(N)nc1` [Example E-318], the IC50 was 107 nM.

On to `CCc1ncnc(-c2ccc(C(=O)N3CCC4(CC3)CC(NC(=O)OC(C)(C)C)C4)c(F)c2)c1C#Cc1ccc(N)nc1` [Example E-319], for which the IC50 came to 360 nM.

In the case of `CCc1ncnc(-c2ccc(C(=O)N3CCC4(CC3)CC(N)C4)c(F)c2)c1C#Cc1ccc(N)nc1` [Example E-320], the IC50 amounted to 1300 nM.

As to `CCc1ncnc(-c2ccc(C(=O)N3CCC4(CC3)CN(C(=O)OC(C)(C)C)CCO4)c(F)c2)c1C#Cc1ccc(N)nc1` [Example E-321], the IC50 was determined as 412 nM.

For `CCc1ncnc(-c2ccc(C(=O)N3CCC4(CC3)CNCCO4)c(F)c2)c1C#Cc1ccc(N)nc1` [Example E-322], the IC50 is 391 nM.

In the case of `CCc1ncnc(-c2ccc(C(=O)N3CCC4(CN(C(=O)OC(C)(C)C)C4)C3)c(F)c2)c1C#Cc1ccc(N)nc1` [Example E-323], the IC50 is 842 nM.

For the molecule `CCc1ncnc(-c2ccc(C(=O)N3CCC4(CNC4)C3)c(F)c2)c1C#Cc1ccc(N)nc1` [Example E-324], the IC50 came out at 935 nM.

`CCc1ncnc(-c2ccc(C(=O)N3CCOC4(CCN(C(=O)OC(C)(C)C)CC4)C3)c(F)c2)c1C#Cc1ccc(N)nc1` [Example E-325]: the IC50 is 1180 nM.

On to `CCc1ncnc(-c2ccc(C(=O)N3CCOC4(CCNCC4)C3)c(F)c2)c1C#Cc1ccc(N)nc1` [Example E-326], for which the IC50 amounted to 367 nM.

For `CCc1ncnc(-c2ccc(C(=O)N3CCC4(CCN(C(=O)OC(C)(C)C)CC4)C3)c(F)c2)c1C#Cc1ccc(N)nc1` [Example E-327], the half-inhibitory concentration (IC50) turned out to be 1360 nM.

`CCc1ncnc(-c2ccc(C(=O)N3CCC4(CCNCC4)C3)c(F)c2)c1C#Cc1ccc(N)nc1` [Example E-328]: the IC50 stood at 586 nM.

In the case of `CCc1ncnc(-c2ccc(C(=O)N3C[C@H]4CN(C(=O)OC(C)(C)C)C[C@H]4C3)c(F)c2)c1C#Cc1ccc(N)nc1` [Example E-329], the IC50 is 238 nM.

Turning to `CCc1ncnc(-c2ccc(C(=O)N3C[C@H]4CNC[C@H]4C3)c(F)c2)c1C#Cc1ccc(N)nc1` [Example E-330], the IC50 turned out to be 601 nM.

Take `CCc1ncnc(-c2ccc(C(=O)N3C[C@@H]4CCN(C(=O)OC(C)(C)C)[C@@H]4C3)c(F)c2)c1C#Cc1ccc(N)nc1` [Example E-331]: the IC50 came to 151 nM.

As for `CCc1ncnc(-c2ccc(C(=O)N3C[C@@H]4CCN[C@@H]4C3)c(F)c2)c1C#Cc1ccc(N)nc1` [Example E-332], the IC50 came out at 655 nM.

Turning to `CCc1ncnc(-c2cc(Cl)c(C(=O)N3CC4(CN(C)C4)C3)c(Cl)c2)c1C#Cc1ccc(N)nc1` [Example E-333], the IC50 amounted to 599 nM.

Regarding `CCc1ncnc(-c2ccc(C(=O)N3CC4(CN(C)C4)C3)c(Cl)c2)c1C#Cc1ccc(N)nc1` [Example E-334], the IC50 was 966 nM.

Consider `CCc1ncnc(-c2cc(Cl)c(C(=O)N3CCC4(CC3)CN(C)C4)c(Cl)c2)c1C#Cc1ccc(N)nc1` [Example E-335], for which the IC50 came to 2210 nM.

As to `CCc1ncnc(-c2cc(F)c(C(=O)N3CCC4(CC3)CN(C)C4)c(F)c2)c1C#Cc1ccc(N)nc1` [Example E-336], the IC50 is 773 nM.

On to `CCc1ncnc(-c2cc(F)c(C(=O)N3CCC4(CC3)CN(C)C4)c(Cl)c2)c1C#Cc1ccc(N)nc1` [Example E-337], for which the IC50 came out at 862 nM.

With `CCc1ncnc(-c2ccc(C(=O)N3CCC4(CC3)CN(C)C4)c(Cl)c2)c1C#Cc1ccc(N)nc1` [Example E-338], the IC50 was 634 nM.

Regarding `CCc1ncnc(-c2ccc(C(=O)N3CCC4(CC3)CN(C)C4)c(F)c2)c1C#Cc1ccc(N)nc1` [Example E-339], the IC50 was found to be 331 nM.

Take `CCc1ncnc(-c2cc(F)c(C(=O)N3CCN(C)C[C@H]3C)c(F)c2)c1C#Cc1ccc(N)nc1` [Example E-340]: the IC50 is 364 nM.

Turning to `CCc1ncnc(-c2cc(F)c(C(=O)N3CCN(C)C[C@@H]3C)c(Cl)c2)c1C#Cc1ccc(N)nc1` [Example E-341], the IC50 stood at 282 nM.

As to `CCc1ncnc(-c2ccc(C(=O)N3CCN(Cc4ncon4)CC3)c(Cl)c2)c1C#Cc1ccc(N)nc1` [Example E-342], the IC50 was found to be 137 nM.

With `CCc1ncnc(-c2ccc(C(=O)N3CCN(CCOCCO)CC3)c(F)c2)c1C#Cc1ccc(N)nc1` [Example E-345], the IC50 worked out at 109 nM.

In the case of `CCc1ncnc(-c2ccc(C(=O)N3CCN(Cc4ncon4)CC3)c(F)c2)c1C#Cc1ccc(N)nc1` [Example E-346], the IC50 stood at 167 nM.

`CCc1ncnc(-c2ccc(C(=O)N3CCN(C)C[C@H]3C)c(F)c2)c1C#Cc1ccc(N)nc1` [Example E-347]: the IC50 worked out at 205 nM.

On to `CCc1ncnc(-c2ccc(C(=O)N3CCN(C)C[C@@H]3C)c(F)c2)c1C#Cc1ccc(N)nc1` [Example E-348], for which the IC50 amounted to 144 nM.

Take `CCc1ncnc(-c2ccc(C(=O)N3CCN(CC(C)(C)O)CC3)c(F)c2)c1C#Cc1ccc(N)nc1` [Example E-349]: the IC50 was found to be 175 nM.
